According to patent US20060034941A1, “Organ preconditioning, arrest, protection, preservation and recovery” (priority 2002, published 2006):
pKi: −log10 of the molar value. Like-named read-outs stand apart in the source and are kept apart here.

Experiments:
[1] = target: human NK(1) receptor (Homo sapiens, UniProt P25103); conditions: cited from earlier work
[2] = tested on: in vivo rabbit model; conditions: reduced MAP similar to CCPA; cited from earlier work
[3] = tested on: canine neutrophils stimulated by platelet activating factor; assay: In vitro superoxide anion generation by PAF-activated neutrophils; type: cell-based; conditions: PAF 100 nmol; 0.1 to 10 uM L, 0.1 to 100 uM ADO; synergy at 1 uM, 5 uM and 10 uM
Method: PMNs were isolated using the Ficoll-Pacque (Sigma Chemical, St. Louis, Mo.) technique. The cells were adjusted to ˜9×10^7 cells/ml. […] Superoxide anion (—O.2) production by neutrophils stimulated by platelet activating factor (100 nmol) were determined by measuring the superoxide dismutase-inhibitable reduction of ferricytochrome c to ferrocytochrome c spectrophotometrically at 550 nm using a V-Max Microtiter Plate Reader (Molecular Devices, Palo Alto, Calif.). […] Concentrations indicated are final concentrations in each cuvette.

[4] = tested on: A-V nodal and SA pacemakers; conditions: cited from earlier work
[5] = i.v., cited from earlier work

human NK(1) receptor, sequence (P25103 whole entry): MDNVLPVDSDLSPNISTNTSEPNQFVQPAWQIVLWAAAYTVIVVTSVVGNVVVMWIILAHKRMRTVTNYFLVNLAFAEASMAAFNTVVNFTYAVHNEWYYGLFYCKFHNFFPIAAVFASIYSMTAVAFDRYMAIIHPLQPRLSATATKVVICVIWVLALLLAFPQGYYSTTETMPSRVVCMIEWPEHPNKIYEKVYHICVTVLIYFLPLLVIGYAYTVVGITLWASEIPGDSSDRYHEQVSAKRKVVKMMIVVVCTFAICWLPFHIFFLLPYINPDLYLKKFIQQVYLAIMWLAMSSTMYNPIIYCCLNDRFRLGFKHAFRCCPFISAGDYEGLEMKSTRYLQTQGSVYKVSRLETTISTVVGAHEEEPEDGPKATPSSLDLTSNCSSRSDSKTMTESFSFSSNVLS

Row | Structure (SMILES) | effect on infarct size [2] | superoxide anion generation [3] | also measured
1 | Cc1cccc(C)c1NC(=O)C[C@H]1CCN(C(=O)c2cc(C(F)(F)F)cc(C(F)(F)F)c2)[C@@H](Cc2ccccc2)C1.O=C(O)C[C@H](O)C(=O)O (relative stereo) [R116301, (2R-trans)-4-[1-[3,5-bis(trifluoromethyl)benzoyl]-2-(phenylmethyl)-4-piperidinyl]-N-(2,6-dimethylphenyl)-1-acetamide (S)-Hydroxybutanedioate] | – | – | pKi [1]: 9.35; selectivity toward NK(2) and NK(3) receptors [1]: over 200 fold
2 | CCCCC#Cc1nc(N)c2ncn([C@@H]3O[C@H](C(=O)NCC)[C@@H](O)[C@H]3O)c2n1 [2HE-NECA, 2-hexynyl-5′-N-ethyl-carboxamindoadenosine] | did not change infarct size | – | –
3 | Nc1ncnc2c1ncn2[C@@H]1O[C@H](CO)[C@@H](O)[C@H]1O [Ado-only, adenosine] | – | reduce superoxide anion generation | effectiveness in slowing the conductance of A-V nodal relative to SA pacemakers [4]: 30 times
4 | CCN(CC)CC(=O)Nc1c(C)cccc1C [Lido-only, lidocaine] | – | reduce superoxide anion generation | maximum safe dose ([5]; with epinephrine): ~7 mg/kg; maximum safe dose ([5]; without epinephrine): approximately 4 mg/kg
5 | CCNC(=O)[C@H]1O[C@@H](n2cnc3c(N)ncnc32)[C@H](O)[C@@H]1O [NECA, 5′-N-ethyl-carboxamindoadenosine] | did not change infarct size | – | –
6 | CC(C)NCC(O)COc1ccc(CC(N)=O)cc1 (stereo not shown) [atenolol] | did not change infarct size | – | –
